# According to PubChem BioAssay AID606 (Columbia University Molecular Screening Center, 2007):
# Activity calls are given as the source filed them.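 The calls were made as follows: active = IC50 under 40 µM in the dose-response test; inactive = IC50 of 40 µM or more, or never dose-tested.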
# Molecular target: Tyrosine-protein phosphatase non-receptor type 22 (Homo sapiens) (UniProt Q9Y2R2)
# Assay: LYP phosphatase inhibitors, primary screen, biochemical, DiFMUP fluorescence, recombinant catalytic domain, 10 µM (AID 606)
# Chain of Tyrosine-protein phosphatase non-receptor type 22 (Homo sapiens) (Q9Y2R2 whole entry, looked up, the tested form may be a part): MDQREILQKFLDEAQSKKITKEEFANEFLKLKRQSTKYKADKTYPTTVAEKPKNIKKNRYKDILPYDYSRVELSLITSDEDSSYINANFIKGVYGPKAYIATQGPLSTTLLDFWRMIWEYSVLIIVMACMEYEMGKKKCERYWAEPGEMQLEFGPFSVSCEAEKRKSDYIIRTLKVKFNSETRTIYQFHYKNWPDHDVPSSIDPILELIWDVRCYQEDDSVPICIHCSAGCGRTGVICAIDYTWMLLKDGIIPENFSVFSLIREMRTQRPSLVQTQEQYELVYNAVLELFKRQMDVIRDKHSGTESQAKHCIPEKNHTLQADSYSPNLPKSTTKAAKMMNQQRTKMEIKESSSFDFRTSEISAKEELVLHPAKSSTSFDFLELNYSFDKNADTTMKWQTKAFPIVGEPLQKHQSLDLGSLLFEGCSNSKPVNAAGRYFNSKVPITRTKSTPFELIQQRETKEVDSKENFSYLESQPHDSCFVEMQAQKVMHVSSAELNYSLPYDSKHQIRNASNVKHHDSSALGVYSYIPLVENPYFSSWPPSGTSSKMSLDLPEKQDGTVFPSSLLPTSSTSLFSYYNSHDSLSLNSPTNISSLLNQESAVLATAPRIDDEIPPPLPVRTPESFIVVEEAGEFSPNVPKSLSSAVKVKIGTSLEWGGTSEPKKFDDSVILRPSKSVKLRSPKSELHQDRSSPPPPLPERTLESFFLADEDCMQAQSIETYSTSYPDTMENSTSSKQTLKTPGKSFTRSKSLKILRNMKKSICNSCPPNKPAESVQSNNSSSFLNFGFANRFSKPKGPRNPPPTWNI
smiles,measurement,value
Oc1ccc2ccccc2c1C=NC12CN3CCN(CN(C3)C1)C2,IC50,> 40 µM (inactive)
